The values below come from patent publication US10688111B2, “Liquid formulations of compounds active at sulfonylurea receptors” (Biogen Chesapeake LLC, priority 2008, dated 2020).

This data set can be described thus: Stability of glibenclamide injection formulations on storage. To be noted: formulation with 5 mM meglumine at pH 9. The class given is physicochemical.

Description: Glibenclamide stability was investigated by storing several formulations under different conditions for long periods of time. In particular, glibenclamide formulations suitable for injection were stored for up to six months and stability data for these formulations was obtained over that period of time.
This study assessed the relative stability of 4 batches of glibenclamide formulations suitable for injection. The following studies were conducted.
All storage cabinets were continually monitored for temperature and humidity using calibrated probes. After removal from long-term storage, all samples were stored at 2-8° C. protected from light while awaiting analysis.
At each time point, 2 vials of glibenclamide injections will be removed from the storage cabinet from the appropriate conditions and allowed to equilibrate to ambient temperature. This will be used to perform the analyses described above and will be stored under normal laboratory conditions throughout the duration of the analyses.
The formulations were inspected visually for appearance and for the presence of particulates. The pH of duplicate samples from separate vials was measured to determine formulation pH and to track changes, if any, over the course of time during the stability experiments.

On to `COc1ccc(Cl)cc1C(=O)NCCc1ccc(S(=O)(=O)NC(=O)NC2CCCCC2)cc1` [Glibenclamide, N-p-(2-[5-Chloro-2-methoxybenzamido]ethyl) benzenesulfonyl-N′-cyclohexylurea], for which the hydrolysis on storage result was “hydrolysis was not seen” (refrigerated samples stored at 2-8° C., FIG. 3A) and “some hydrolysis” (stored at elevated temperatures (25° C./60% RH, 40° C./75% RH), FIGS. 3B, 3C). Further, the “physical stability (drug in solution) on storage” value (stored at 2-8° C.) is reported as “remained in solution”.
